Toxic doses and inconclusive results are not listed. Cut-off read from the data, not from the text of the source: active = T/C of 150% or more; inactive = T/C below 125%.
Test system: L1210 leukemia ip in BDF1 mice, survival T/C
Experiment: NCI In Vivo Anticancer Drug Screen. Data for tumor model L1210 Leukemia (intraperitoneal) in B6D2F1 (BDF1) mice
Conditions: endpoint: mean survival time, higher = longer survival
How it was run: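 Transplanted-tumor mice were given test agent; controls received vehicle only. Survival readings from the two groups were divided (treated over control).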

[1] = dose: 100.0 mg/kg/injection, schedule: Q01DX001 (ip), vehicle: Klucel (hydroxypropylcellulose) (HPC)
[2] = dose: 100.0 mg/kg/injection, schedule: Q04DX002 (ip), vehicle: saline
[3] = dose: 200.0 mg/kg/injection, schedule: Q01DX001 (ip), vehicle: Klucel (hydroxypropylcellulose) (HPC)
[4] = dose: 200.0 mg/kg/injection, schedule: Q04DX002 (ip), vehicle: saline
[5] = dose: 400.0 mg/kg/injection, schedule: Q01DX001 (ip), vehicle: Klucel (hydroxypropylcellulose) (HPC)
[6] = dose: 100.0 mg/kg/injection, schedule: Q01DX009 (ip), vehicle: Klucel (hydroxypropylcellulose) (HPC)
[7] = dose: 100.0 mg/kg/injection, schedule: Q04DX003 (ip), vehicle: Klucel (hydroxypropylcellulose) (HPC)
[8] = dose: 100.0 mg/kg/injection, schedule: Q01DX001 (ip), vehicle: carboxymethylcellulose (CMC)
[9] = dose: 200.0 mg/kg/injection, schedule: Q01DX001 (ip), vehicle: carboxymethylcellulose (CMC)
[10] = dose: 400.0 mg/kg/injection, schedule: Q01DX001 (ip), vehicle: carboxymethylcellulose (CMC)
[11] = dose: 200.0 mg/kg/injection, schedule: Q01DX009 (ip), vehicle: Klucel (hydroxypropylcellulose) (HPC)
[12] = dose: 400.0 mg/kg/injection, schedule: Q01DX009 (ip), vehicle: Klucel (hydroxypropylcellulose) (HPC)

Measured: T/C

Nc1nc2c(ncn2-c2ccc(NS(=O)(=O)c3cccc(S(=O)(=O)F)c3)cc2)c(=O)[nH]1
inactive: dose: 75.0 mg/kg/injection, schedule: Q01DX001 (ip), vehicle: Klucel (hydroxypropylcellulose) (HPC) 97 % of control | dose: 300.0 mg/kg/injection, schedule: Q01DX001 (ip), vehicle: Klucel (hydroxypropylcellulose) (HPC) 88 % of control

O=C(O)C(c1ccccc1)c1ccccc1
inactive: [1] 97 % of control | [2] 97 % of control | [3] 101 % of control | [4] 97 % of control | [5] 109 % of control | dose: 400.0 mg/kg/injection, schedule: Q04DX002 (ip), vehicle: saline 87 % of control

OC(CCN1CCCCC1)(c1ccccc1)C1CC2C=CC1C2 (stereo unspecified)
inactive: dose: 6.25 mg/kg/injection, schedule: Q01DX009 (ip), vehicle: Klucel (hydroxypropylcellulose) (HPC) 106 % of control | dose: 12.5 mg/kg/injection, schedule: Q01DX009 (ip), vehicle: Klucel (hydroxypropylcellulose) (HPC) 105 % of control | dose: 25.0 mg/kg/injection, schedule: Q01DX009 (ip), vehicle: Klucel (hydroxypropylcellulose) (HPC) 100 % of control | dose: 25.0 mg/kg/injection, schedule: Q04DX003 (ip), vehicle: Klucel (hydroxypropylcellulose) (HPC) 106 % of control | dose: 50.0 mg/kg/injection, schedule: Q01DX009 (ip), vehicle: Klucel (hydroxypropylcellulose) (HPC) 105 % of control | dose: 50.0 mg/kg/injection, schedule: Q04DX003 (ip), vehicle: Klucel (hydroxypropylcellulose) (HPC) 97 % of control | [6] 103 % of control | [7] 95 % of control

CCC(=O)C1(c2cccc(O)c2)CCN(C)CC1
inactive: dose: 75.0 mg/kg/injection, schedule: Q01DX001 (ip), vehicle: saline 94 % of control | dose: 150.0 mg/kg/injection, schedule: Q01DX001 (ip), vehicle: saline 97 % of control

O=C1C(c2ccccc2)=C2c3ccccc3-c3ccccc3C2(O)C1c1ccccc1 (stereo unspecified)
inactive: [1] 98 % of control | [3] 103 % of control | [5] 98 % of control

C=C(Br)CN(CC)C(C)=O
inactive: dose: 100.0 mg/kg/injection, schedule: Q04DX003 (ip), vehicle: saline 108 % of control

O=C(O)CSc1ccc([N+](=O)[O-])cn1
inactive: dose: 6.25 mg/kg/injection, schedule: Q01DX001 (ip), vehicle: carboxymethylcellulose (CMC) 108 % of control | dose: 12.5 mg/kg/injection, schedule: Q01DX001 (ip), vehicle: carboxymethylcellulose (CMC) 111 % of control | dose: 25.0 mg/kg/injection, schedule: Q01DX001 (ip), vehicle: carboxymethylcellulose (CMC) 104 % of control | dose: 37.5 mg/kg/injection, schedule: Q01DX001 (ip), vehicle: carboxymethylcellulose (CMC) 104 % of control | dose: 50.0 mg/kg/injection, schedule: Q01DX001 (ip), vehicle: carboxymethylcellulose (CMC) 115 % of control | [8] 101 % of control | [9] 103 % of control | [10] 101 % of control

NS(=O)(=O)c1ccc(NC(=O)Nc2ccccc2C(F)(F)F)cc1
inactive: [6] 100 % of control | [11] 89 % of control | [12] 93 % of control

O=C1CCCCCCCCCC/C1=N/O
inactive: [1] 111 % of control | [3] 101 % of control | [5] 92 % of control

CC(F)C(Br)C(=O)O (stereo unspecified)
inactive: [2] 90 % of control | [4] 90 % of control

C=C(Cl)CN(C)CC(=C)Cl
inactive: dose: 100.0 mg/kg/injection, schedule: Q01DX001 (ip), vehicle: saline 102 % of control

CCOC(=O)c1c(NC(=O)CCl)ssc1=S
inactive: dose: 50.0 mg/kg/injection, schedule: Q01DX009 (ip), vehicle: saline with Tween-80 103 % of control | dose: 100.0 mg/kg/injection, schedule: Q04DX003 (ip), vehicle: saline with Tween-80 92 % of control | dose: 200.0 mg/kg/injection, schedule: Q04DX003 (ip), vehicle: saline with Tween-80 91 % of control

Cc1ccc(Cl)cc1N1C(=O)CC(Sc2ccccc2N)C1=O (stereo unspecified)
inactive: [6] 90 % of control | [7] 90 % of control | [11] 90 % of control | dose: 200.0 mg/kg/injection, schedule: Q04DX003 (ip), vehicle: Klucel (hydroxypropylcellulose) (HPC) 95 % of control | [12] 90 % of control | dose: 400.0 mg/kg/injection, schedule: Q04DX003 (ip), vehicle: Klucel (hydroxypropylcellulose) (HPC) 90 % of control

CCOc1ccc(OC/C=C(\C)CCC=C(C)C)cc1
inactive: dose: 100.0 mg/kg/injection, schedule: Q01DX009 (ip), vehicle: saline with Tween-80 103 % of control | dose: 100.0 mg/kg/injection, schedule: Q04DX002 (ip), vehicle: saline with Tween-80 101 % of control | dose: 200.0 mg/kg/injection, schedule: Q01DX009 (ip), vehicle: saline with Tween-80 92 % of control | dose: 200.0 mg/kg/injection, schedule: Q04DX002 (ip), vehicle: saline with Tween-80 94 % of control | dose: 400.0 mg/kg/injection, schedule: Q04DX002 (ip), vehicle: saline with Tween-80 94 % of control

CC(=O)Nc1ccc2c(c1)-c1ccc(F)cc1C2
inactive: [8] 94 % of control | [9] 96 % of control | [10] 102 % of control

CCCCCC(/C=N/N=C(N)N)=N\N=C(N)N
inactive: dose: 15.0 mg/kg/injection, schedule: Q01DX Z (ip), vehicle: carboxymethylcellulose (CMC) 98 % of control | dose: 30.0 mg/kg/injection, schedule: Q01DX Z (ip), vehicle: carboxymethylcellulose (CMC) 97 % of control | dose: 30.0 mg/kg/injection, schedule: Q01DX Z (oral), vehicle: carboxymethylcellulose (CMC) 98 % of control | dose: 60.0 mg/kg/injection, schedule: Q01DX Z (ip), vehicle: carboxymethylcellulose (CMC) 95 % of control | dose: 60.0 mg/kg/injection, schedule: Q01DX Z (oral), vehicle: carboxymethylcellulose (CMC) 87 % of control | dose: 120.0 mg/kg/injection, schedule: Q01DX Z (oral), vehicle: carboxymethylcellulose (CMC) 91 % of control | dose: 240.0 mg/kg/injection, schedule: Q01DX Z (oral), vehicle: carboxymethylcellulose (CMC) 95 % of control

Cc1cc(NCCN(C(C)C)C(C)C)nc(/N=C(\N)Nc2ccc(Cl)c(C(F)(F)F)c2)n1
inactive: dose: 1.25 mg/kg/injection, schedule: Q01DX009 (ip), vehicle: Klucel (hydroxypropylcellulose) (HPC) 109 % of control | dose: 2.5 mg/kg/injection, schedule: Q01DX009 (ip), vehicle: Klucel (hydroxypropylcellulose) (HPC) 104 % of control | dose: 5.0 mg/kg/injection, schedule: Q01DX009 (ip), vehicle: Klucel (hydroxypropylcellulose) (HPC) 107 % of control | dose: 9.37 mg/kg/injection, schedule: Q01DX009 (ip), vehicle: Klucel (hydroxypropylcellulose) (HPC) 98 % of control | dose: 10.0 mg/kg/injection, schedule: Q01DX009 (ip), vehicle: Klucel (hydroxypropylcellulose) (HPC) 102 % of control | dose: 18.75 mg/kg/injection, schedule: Q01DX009 (ip), vehicle: Klucel (hydroxypropylcellulose) (HPC) 96 % of control | dose: 20.0 mg/kg/injection, schedule: Q01DX009 (ip), vehicle: Klucel (hydroxypropylcellulose) (HPC) 98 % of control | dose: 75.0 mg/kg/injection, schedule: Q01DX001 (ip), vehicle: other 103 % of control | dose: 75.0 mg/kg/injection, schedule: Q04DX003 (ip), vehicle: Klucel (hydroxypropylcellulose) (HPC) 100 % of control | dose: 150.0 mg/kg/injection, schedule: Q01DX001 (ip), vehicle: other 98 % of control | dose: 150.0 mg/kg/injection, schedule: Q04DX003 (ip), vehicle: Klucel (hydroxypropylcellulose) (HPC) 100 % of control | dose: 300.0 mg/kg/injection, schedule: Q01DX001 (ip), vehicle: other 110 % of control | dose: 300.0 mg/kg/injection, schedule: Q04DX003 (ip), vehicle: Klucel (hydroxypropylcellulose) (HPC) 105 % of control
